Experimental data from US20220364184A1, “COMPOSITIONS AND METHODS FOR TREATMENT OF A POOR PROGNOSIS SUBTYPE OF COLORECTAL CANCER” (DANA-FARBER CANCER INSTITUTE, INC., priority 2019, published 2022).

Legend:
Type in all cases: cell-based, human
BCL9 [1] = experiment: Immunofluorescence / FISH of BCL9 localization; settings: RKO cells
Procedure: At various times after the scratch was made, cells were fixed with 4% paraformaldehyde for 15 minutes at room temperature. Immunofluorescence was subsequently used to identify the location of BCL9 (see immunofluorescence method section for more detail).
Cells were cultured on coming Glass Coverslips (354085, BioCoat) contained within the wells of a 24-well plate for 24 hrs, and then fixed using 4% paraformaldehyde. Cells were washed three times with PBS, permeabilized with 0.5% Triton X-100 (Tris-HCl pH=7.6, 150 mM NaCl, 0.5% Triton X-100 (v/v), washing buffer) for 15 minutes at room temperature, and blocked with 5% BSA for 1 hour at room temperature. The cells were incubated overnight at 4 degrees with the following antibodies; anti-BCL9 (ab37305, Abcam®), NONO (TA504777, Origene®), ILF2 (PA5-18718, ThermoFisher®) or β-catenin (610154, BD Transduction Laboratories). The following day, cells were washed 3 times with PBS and incubated with fluorescently tagged anti-mouse (A11029, ThermoFisher®), rabbit (A11035, ThermoFisher®) or goat (A21447, ThermoFisher®) secondary antibodies for 1 hour at room temperature. Cells were washed 3 times with PBS and stained with DAPI (D9542, Millipore-Sigma®) for two mins. Cells were subsequently washed three times with PBS to remove any residual DAPI stain, and then imaged with an SD confocal microscope. The colocalization threshold is calculated by ImageJ2. Dotted staining area of BCL9 was calculated by the following step: confocal images were processed by High Frequency Signaling Removal to filter out the rapidly changing signal. This process removes the noise and non-dotted staining of BCL9. Then, the top 2% signaling areas were selected. High Frequency Signaling Removal and area size was calculated by ImageJ2. NEAT1 and fluorescence probe was purchased from Biosearch Technology (NEAT1, SMF-2036-1). IF combined FISH of BCL9/NEAT1 was performed as recommended by the supplier.

RKO cells [2] = experiment: Cell viability of wild-type and BCL9 knockout RKO cells after Poly I:C
RKO cells [3] = experiment: Live-cell calcium imaging of spontaneous calcium transients (GCaMP5); settings: calcium wave spike library
Procedure: 2 mg/ml neomycin was added to the cell culture medium 48 hrs after transfection to generate cell lines with stable GCaMP5 expression and removed one week prior to the initiation of experiment. Calcium transients were captured by live-cell imaging using a confocal microscope. Time lapse imaging was setup so that an image was captured every 0.5 s for 30 minutes, with an exposure time of 0.5 s. Calcium measurements were normalized to background fluorescence and the relative change in calcium (F(t)) over time was calculated by the formula: […]
where F0 was defined as the average intensity of the 20% lowest grey values in a region of interest (ROI), F was defined as the normalized grey values of ROI in time point t. Global synchronicity was calculated by cross correlation method in FluoroSNNAP (seas.upenn.edu/˜molneuro/fluorosnnap.html).

[4] = test system: RGS4, CACNA2D1, ADRB1 mRNA; experiment: mRNA expression by RNA-seq / qRT-PCR; settings: FIG. 3J
Procedure: RNA was extracted from wild type and BCL9 knockout RKO cells with or without Poly I:C treatment (1 μg/ml) and subsequently purified using the TURBO DNA-free™ Kit (AM1907, invitrogen) to remove any residual DNA. An RNA library was prepared using the ribosome RNA removing method and sequenced with a 150 bp paired-end protocol in the Center for Cancer Computational Biology at the Dana Farber Cancer Institute (PRJNA554110). After quality control (QC) analysis was performed using fastQC, the first 10 bases were trimmed for each read. STAR software was used to map the readings to the human genome (hg19) and duplicates were removed using Picard. HTSeq was used to evaluate the gene expression levels by the count number for each gene and were subsequently annotated using the Ensemble database. Gene differential analysis was then applied to the expression profiling table using R package edgeR. For further analysis, the difference in exon usage between different conditions was calculated and R package DEXSeq was used to find differences between them.

DLD-1 cells = experiment: IF and Co-IP of BCL9 with paraspeckle proteins in DLD-1 cells
Procedure: (§1) To extract nuclear protein, cells were incubated with cytoplasmic lysis buffer (50 mM Tris-HCl pH=8.0, 20 mM NaCl, 2 mM EDTA, 0.5% Tween-20 containing protease/phosphatase Inhibitor, #5872, Cell Signaling®) on ice for 10 mins, centrifuged at 6000×g, and the precipitate collected. This step was repeated 3 times to remove at much cytoplasmic protein as possible. Subsequently, nuclear lysis buffer (50 mM Tris-HCl pH=7.4, 150 mM NaCl, 2 mM EDTA, 1% Triton X-100(v/v) containing protease/phosphatase inhibitor) was added to the precipitate, and sonication was used to lyse the sample before centrifugation at 16000×g for 15 minutes at 4 degrees. […] In addition, pulled down protein samples were analyzed by silver staining; bands which existed in anti-BCL9 samples, but not in the anti-normal IgG groups, were cut and used for further MS analysis to validate previous results. […]
Cells were cultured on coming Glass Coverslips (354085, BioCoat) contained within the wells of a 24-well plate for 24 hrs, and then fixed using 4% paraformaldehyde. […] The colocalization threshold is calculated by ImageJ2. Dotted staining area of BCL9 was calculated by the following step: confocal images were processed by High Frequency Signaling Removal to filter out the rapidly changing signal. […]

BCL9 [5] = experiment: Immunoblotting of protein levels; settings: longer exposure, FIG. 3F and 16D
Procedure: Following lysis, cells were incubated on ice for 10 minutes and centrifuged for 10 minutes at 4 degrees at 16000×g.

[6] = test system: BCL9/β-catenin protein complex; experiment: Coimmunoprecipitation of BCL9/β-catenin complex
Procedure: as §1, with “degrees. 1 mg of the nuclear lysate was blocked with 5% BSA for 1 hr at 4 degrees, before overnight incubation with anti-BCL9 (ab37305 Abcam®, 6109 generated in New England Biolabs), NONO (ab70335, Abcam®), SFPQ (ab38148), ILF2 (H00003608-D01, abnova) or β-catenin (9562L, Cell Signaling®) antibodies. Normal rabbit IgG (sc-3888, Santa Cruz®) was used as a negative control. The following day, Protein G and A DynaBeads (10003D, 10002D, ThermoFisher®) were added to the nuclear lysate at a ratio of 1:1 and rotated for an additional 4 hrs.” for “degrees.”

[7] = test system: BCL9/paraspeckle proteins (NONO, SFPQ, ILF2); experiment: Coimmunoprecipitation of BCL9 with paraspeckle proteins; settings: RKO cells, FIG. 16K
Procedure: This step was repeated 3 times to remove at much cytoplasmic protein as possible. Subsequently, nuclear lysis buffer (50 mM Tris-HCl pH=7.4, 150 mM NaCl, 2 mM EDTA, 1% Triton X-100(v/v) containing protease/phosphatase inhibitor) was added to the precipitate, and sonication was used to lyse the sample before centrifugation at 16000×g for 15 minutes at 4 degrees. […] The following day, Protein G and A DynaBeads (10003D, 10002D, ThermoFisher®) were added to the nuclear lysate at a ratio of 1:1 and rotated for an additional 4 hrs. The beads were washed 3 times with washing buffer (50 mM Tris-HCl pH=7.4, 200 mM NaCl, 2 mM EDTA, 1% Triton X-100(v/v)). The beads were then re-suspended with 2×LDS sample buffer and boiled for 10 mins. For Immunoblotting, the sample was electrophoresed using SDS-PAGE, transferred to nitrocellulose membrane and blocked using non-fat 5% milk.

poly I:C
partial co-localization between BCL9/IF and NEAT1/FISH signals (BCL9 [1]; FIG. 16I): increased
accumulation of BCL9 around the nucleus (BCL9 [1]; after 6 hrs, FIG. 16C): accumulation of BCL9 around the nucleus was observed
BCL9 accumulation around the nucleolus (BCL9 [1]; longer exposure, FIG. 3F): induced further BCL9 accumulation around the nucleolus
growth of cells (RKO cells [2]; BCL9 knockout RKO cells): not
growth of cells (RKO cells [2]; wild-type RKO cells): increased
length and amplitude of calcium transients (RKO cells [3]; BCL9 knockout cells): not
length and amplitude of calcium transients (RKO cells [3]; wild-type cells): enhanced
transcription of the full-length RGS4 mRNA isoform ([4]; BCL9 knockout cells): not rescued
expression of RGS4, CACNA2D1 and ADRB1 ([4]; wild-type RKO cells, RNA-seq, Poly I:C 1 μg/ml): increased
location and interaction of BCL9 with paraspeckle proteins (DLD-1 cells): unresponsive
BCL9 and ILF2 protein levels (BCL9 [5]): increased
amount of BCL9/β-catenin protein complex ([6]; Colo320 cells, FIG. 16J): reduced

B1: Wnt3A: Wnt ligand used to treat RKO cells (protein, UniProt P56704 19-352, looked up)
Protein Wnt-3a: SYPIWWSLAVGPQYSSLGSQPILCASIPGLVPKQLRFCRNYVEIMPSVAEGIKIGIQECQHQFRGRRWNCTTVHDSLAIFGPVLDKATRESAFVHAIASAGVAFAVTRSCAEGTAAICGCSSRHQGSPGKGWKWGGCSEDIEFGGMVSREFADARENRPDARSAMNRHNNEAGRQAIASHMHLKCKCHGLSGSCEVKTCWWSQPDFRAIGDFLKDKYDSASEMVVEKHRESRGWVETLRPRYTYFKVPTERDLVYYEASPNFCEPNPETGSFGTRDRTCNVSSHGIDGCDLLCCGRGHNARAERRREKCRCVFHWCCYVSCQECTRVYDVHTCK
BCL9 binding to paraspeckle proteins [7]: did not affect
interaction between BCL9 and β-catenin ([6]; RKO cells, FIG. 16K): increased
